This is an account of results in patent US20050085413A1, “Dimeric pharmaceutical compounds and their use” (priority 2001, published 2005).

Common to all, as to assay: Plaque reduction assay (PRA) in MDCK cells
(In general: In a plaque reduction assay, fewer plaques than in the control indicate reduced infectivity or spread.)

Experiment [1] concerns A/Sydney/5/97 BVLV015 (H3N2). Type of experiment: cell-based, influenza virus. The following applies: plaque numbers reduced by 50%; for EC50: Influenza A virus, MDCK, read-out: EC50 ng/ml PRA A/Syd.
The next experiment concerns B/Victoria/1/67. Type of experiment: cell-based, influenza virus. The following applies: plaque numbers reduced by 50%, bis(trifluoroacetic acid salt).
For experiment [2], the system named is B/Yamanashi/166/98 BVLV007. The class given is cell-based, influenza virus. The following applies: plaque numbers reduced by 50%; for EC50 ng/ml PRA B/Yam: B/Yamanashi/166/98 BVLV007.
The subject of another experiment is B/Hong Kong/5/72 BVLV012. Type of experiment: cell-based, influenza virus. The following applies: for EC50: MDCK, read-out: EC50 ng/ml PRA B/HongK.
The test system of experiment [3] is A/Victoria/3/75 BVLV017 (H3N2). Type of experiment: cell-based, influenza virus. The following applies: plaque numbers reduced by 50%.
The subject of the next experiment is A/WSN/33 BVLV09 (H1N1). Type of experiment: cell-based, influenza virus. The conditions noted are these: plaque numbers reduced by 50%; for EC50: Influenza A virus, MDCK, read-out: EC50 ng/ml PRA A/WSN.
In experiment [4] the test system is A/Panama/2007/99 BVLV008 (H3N2). The class given is cell-based, influenza virus. The conditions noted are these: plaque numbers reduced by 50%; for EC50: Influenza A virus, H3N2, MDCK, read-out: EC50 ng/ml PRA A/Pan.
Experiment [5] has as its system A/New Caledonia/20/99 BVLV008 (H1N1). Type of experiment: cell-based, influenza virus. The conditions noted are these: plaque numbers reduced by 50%; for EC50: Influenza A virus, H1N1, MDCK, read-out: EC50 ng/ml PRA A/New.
The subject of experiment [6] is A/Bayern/7/95 BVL006 (H1N1). Type of experiment: cell-based. The conditions noted are these: Influenza A virus, plaque numbers reduced by 50%, read-out: EC50 ng/ml PRA A/Bay.
Another experiment relates to B/Harbin/7/95 BVLV008. The class given is cell-based, influenza virus. The following applies: read-out: EC50 ng/ml PRA B/Harb.

Values after ≈ are worked out from the molar mass of the structure shown. Values joined by “and” are separate entries in the source; they are usually repeats but may differ in a detail not shown here. Identical values can stand only once. Counter-ions that a name gives are not always drawn.

Regarding `CC(=O)N[C@H]1[C@H]([C@H](OC(=O)NCCCCCCCCCCCCNC(=O)O[C@@H]([C@@H]2OC(C(=O)O)=C[C@H](NC(=N)N)[C@H]2NC(C)=O)[C@H](O)CO)[C@H](O)CO)OC(C(=O)O)=C[C@@H]1NC(=N)N.O=C(O)C(F)(F)F.O=C(O)C(F)(F)F` [Example 2, (2R,3R,4S)-3-(acetylamino)-2-{(1R,20R,21R)-20-((2R,3R,4S)-3-(acetylamino)-4-{[amino(imino)methyl]amino}-6-carboxy-3,4-dihydro-2H-pyran-2-yl)-1-[(1R)-1,2-dihydroxyethyl]-21,22-dihydroxy-3,18-dioxo-2,19-dioxa-4,17-diazadocos-1-yl}-4-{[amino(imino)methyl]amino}-3,4-dihydro-2H-pyran-6-carboxylic acid bis(trifluoroacetic acid salt)], the “EC50 ng/ml PRA A/Syd” value in experiment [1] is less than 0.0001 ng/mL. Moreover, the “EC50 ng/ml PRA B/Vic” value with B/Victoria/1/67 was 0.04 ng/mL and 0.05 ng/mL. For the same compound, the “EC50 ng/ml PRA B/Yam” value in experiment [2] was less than 0.0001 ng/mL.

On to `CC(=O)N[C@H]1[C@H]([C@H](OC(=O)NCCCCCCCCCCCCCCNC(=O)O[C@@H]([C@@H]2OC(C(=O)O)=C[C@H](NC(=N)N)[C@H]2NC(C)=O)[C@H](O)CO)[C@H](O)CO)OC(C(=O)O)=C[C@@H]1NC(=N)N.O=C(O)C(F)(F)F.O=C(O)C(F)(F)F` [Example 3, (2R,3R,4S)-3-(acetylamino)-2-{(1R,22R,23R)-22-((2R,3R,4S)-3-(acetylamino)-4-{[amino(imino)methyl]amino}-6-carboxy-3,4-dihydro-2H-pyran-2-yl)-1-[(1R)-1,2-dihydroxyethyl]-23,24-dihydroxy-3,20-dioxo-2,21-dioxa-4,19-diazatetracos-1-yl}-4-{[amino(imino)methyl]amino}-3,4-dihydro-2H-pyran-6-carboxylic acid bis(trifluoroacetic acid salt)], for which, in the experiment on B/Hong Kong/5/72 BVLV012 (B/Hong Kong/5/72 BVLV012, plaque numbers reduced by 50%), the “EC50 ng/ml PRA B/HongK” value was less than 0.0001 ng/mL. In addition, the “EC50 ng/ml PRA A/Vic” value in experiment [3] is 0.0023 ng/mL. Moreover, the “EC50 ng/ml PRA A/Syd” value in experiment [1] turned out to be 0.000429 ng/mL. The “EC50 ng/ml PRA B/Vic” value in the experiment with B/Victoria/1/67 was 0.009 ng/mL and 0.01 ng/mL. Besides, in [2], the “EC50 ng/ml PRA B/Yam” value is <0.0001, <0.0001 ng/ml.

For the compound `CC(=O)N[C@H]1[C@H]([C@H](OC(=O)NCCCCCCCCCCCCCNC(=O)O[C@H](C(O)CO)[C@@H]2OC(C(=O)O)=C[C@H](NC(=N)N)[C@H]2NC(C)=O)[C@H](O)CO)OC(C(=O)O)=C[C@@H]1NC(=N)N` (stereo partly drawn) [Example 4, (2R,3R,4S)-3-(acetylamino)-2-{(1R,21R,22R)-21-((2R,3R,4S)-3-(acetylamino)-4-{[amino(imino)methyl]amino}-6-carboxy-3,4-dihydro-2H-pyran-2-yl)-1-[(1R)-1,2-dihydroxyethyl]-22,23-dihydroxy-3,19-dioxo-2,20-dioxa-4,18-diazatricos-1-yl}-4-{[amino(imino)methyl]amino}-3,4-dihydro-2H-pyran-6-carboxylic acid bis(trifluoroacetic acid salt)], the EC50 in the experiment with A/WSN/33 BVLV09 (H1N1) was less than 0.0001 ng/mL; in experiment [4], less than 1e-05 ng/mL; in experiment [5], 0.043 ng/mL; in the experiment on B/Hong Kong/5/72 BVLV012, 0.06 ng/mL; in experiment [1], less than 0.0001 ng/mL; in [2] (unidentified influenza virus, MDCK, read-out: EC50 ng/ml PRA B/Yam, B/Yamanashi/166/98 BVLV007), less than 0.0001 ng/mL.

On to `CC(=O)N[C@H]1[C@H]([C@H](O)[C@H](O)CO)OC(C(=O)O)=C[C@@H]1NC(=N)N` [Compound A], for which the EC50 in [6] came out at 35 ng/mL (≈ 105 nM); in the experiment on A/WSN/33 BVLV09 (H1N1) it was 56 ng/mL (≈ 169 nM); in [4], 2.7 ng/mL (≈ 8.12 nM); in [5] it was 0.27 ng/mL (≈ 0.812 nM); with B/Hong Kong/5/72 BVLV012 it was 21 ng/mL (≈ 63.2 nM); in experiment [3] (Influenza A virus, H3N2, MDCK, read-out: EC50 ng/ml PRA A/Vic) it was 5.5 ng/mL (≈ 16.6 nM). Further, the EC50 in the experiment with B/Harbin/7/95 BVLV008 worked out at 0.19 ng/mL (≈ 0.572 nM); in [1] it was 2.4 ng/mL (≈ 7.22 nM). The “EC50 ng/ml PRA A/WSN” value in the experiment on A/WSN/33 BVLV09 (H1N1) was greater than 100 ng/mL. Further, in experiment [4], the “EC50 ng/ml PRA A/Pan” value amounted to 3 ng/mL (≈ 9.03 nM). The “EC50 ng/ml PRA A/New” value in experiment [5] was 0.23 ng/mL (≈ 0.692 nM).
